Data: ChEMBL document CHEMBL5505992, “Novel membrane-targeting isoxanthohumol-amine conjugates for combating methicillin-resistant Staphylococcus aureus (MRSA) infections” (Eur J Med Chem, 2024)
Calls of active or inactive are those of the source. The rule behind the calls is not given here.

How the values were obtained:
Staphylococcus aureus [1] = test: Bactericidal activity against methicillin-resistant Staphylococcus aureus clinical isolate MRSA-16 assessed as bacterial killing measured upto 8 hrs by time kill assay; format: functional, organism-based
[2] = Toxicity in Kunming mouse assessed as histopathological abnormalities in heart at 4 to 8 mg/kg, sc measured after 24 hrs by H and E staining based analysis; format: organism-based; details: in vivo, dose 4-8 mg/kg
Staphylococcus aureus [3] = test: Antibacterial activity against methicillin-resistant Staphylococcus aureus clinical isolate MRSA-17 measured after 16 to 18 hrs by CLSI method; format: functional; details: time 16-18 hrs
[4] = Toxicity in Kunming mouse assessed as animal death at 5 to 10 mg/kg, sc measured after 24 hrs; format: organism-based; details: in vivo, dose 5-10 mg/kg
Staphylococcus aureus [5] = test: Antibacterial activity against methicillin-resistant Staphylococcus aureus infected in Kunming mouse skin infection model assessed as appearance of small number of infiltrated inflammatory cells in subcutaneous tissue at 8 mg/kg,sc measured after 24 hrs; format: functional, organism-based
Cell membrane [6] = test: Induction of cell membrane depolarization in methicillin-resistant Staphylococcus aureus clinical isolate MRSA-16 assessed as increase in fluorescence intensity measured after 10 mins by DISC3(5) staining based analysis; format: cell membranes; details: dose 8-32 µg/ml
[7] = Cytotoxicity against human L02 cells assessed as cell viability at 32 ug/ml by CCK-8 method relative to control; format: toxicity, cell-based; details: at 32 µg/mL, read-out: Activity
Cell membrane [8] = test: Induction of cell membrane permeability in methicillin-resistant Staphylococcus aureus clinical isolate MRSA-16 assessed as dead cells (Q1 region) at 4 ug/ml incubated for 2 hrs by SYTO 9 and PI staining based flow cytometry analysis (reference value: 0.00%); format: cell membranes; details: dose 4.0 µg/ml
Cell membrane [9] = test: Induction of cytoplasmic membrane depolarization in methicillin-resistant Staphylococcus aureus clinical isolate MRSA-16 assessed as increase in fluorescence intensity at 8 to 32 ug/ml measured every 2 mins for 20 mins by SYTOX green staining based analysis; format: cell membranes; details: dose 8-32 µg/ml
Cell membrane [10] = test: Induction of cytoplasmic membrane depolarization in methicillin-resistant Staphylococcus aureus clinical isolate MRSA-16 assessed as fold increase in fluorescence intensity at 32 ug/ml measured every 2 mins for 20 mins by SYTOX green staining based analysis; format: cell membranes; details: dose 32.0 µg/ml
Staphylococcus aureus [11] = test: Antibacterial activity against methicillin-resistant Staphylococcus aureus infected in Kunming mouse skin infection model assessed as reduction in inflammatory cells at 4 to 8 mg/kg,sc measured after 24 hrs; format: functional, organism-based; details: dose 4-8 mg/kg
[12] = Cytotoxicity against human L02 cells assessed as cell viability at <=16 ug/ml by CCK-8 method relative to control; format: toxicity, cell-based; details: up to 16 µg/mL, read-out: Activity
[13] = Hemolytic activity in sheep erythrocytes incubated for 1 hr by absorbance based analysis; format: toxicity, cell-based, Ovis aries, Erythrocyte
Staphylococcus aureus [14] = test: Antibacterial activity against methicillin-resistant Staphylococcus aureus in presence of phosphatidylglycerol; format: functional, organism-based
Cell membrane [15] = test: Induction of cell membrane permeability in methicillin-resistant Staphylococcus aureus clinical isolate MRSA-16 assessed as decrease in intact cells (Q3 region) at 32 ug/ml incubated for 2 hrs by SYTO 9 and PI staining based flow cytometry analysis (reference value: 99.07%); format: cell membranes; parameters: scale not given: the % may be the effect or the level left; details: dose 32.0 µg/ml
Staphylococcus aureus [16] = test: Antibacterial activity against methicillin-resistant Staphylococcus aureus in presence of peptidoglycan; format: functional
Cell membrane [17] = test: Induction of cell membrane permeability in methicillin-resistant Staphylococcus aureus clinical isolate MRSA-16 assessed as increase in damaged cells (Q2 region) at 4 ug/ml incubated for 2 hrs by SYTO 9 and PI staining based flow cytometry analysis (reference value: 0.91%); format: cell membranes; details: dose 4.0 µg/ml
Staphylococcus aureus [18] = test: Antibacterial activity against methicillin-resistant Staphylococcus aureus clinical isolate MRSA-16 measured after 16 to 18 hrs by CLSI method; format: functional; details: time 16-18 hrs
Staphylococcus aureus [19] = test: Bactericidal activity against Staphylococcus aureus ATCC 29213 assessed as bacterial killing measured upto 8 hrs by time kill assay; format: functional, organism-based
Staphylococcus aureus [20] = test: Antibacterial activity against methicillin-resistant Staphylococcus aureus in presence of cardiolipin; format: functional, organism-based
Staphylococcus aureus [21] = test: Antibacterial activity against methicillin-resistant Staphylococcus aureus infected in Kunming mouse skin infection model assessed as decrease in bacterial load at 4 mg/kg,sc measured after 24 hrs relative to control; format: functional; parameters: scale not given: the % may be the effect or the level left
Cell membrane [22] = test: Induction of cell membrane permeability in methicillin-resistant Staphylococcus aureus clinical isolate MRSA-16 assessed as increase in damaged cells (Q2 region) at 8 ug/ml incubated for 2 hrs by SYTO 9 and PI staining based flow cytometry analysis (reference value: 0.91%); format: cell membranes; details: dose 8.0 µg/ml
[23] = Toxicity in Kunming mouse assessed as survival rate at 40 mg/kg, sc measured after 24 hrs relative to control; format: organism-based; details: in vivo
Staphylococcus aureus [24] = test: Antibacterial activity against methicillin-resistant Staphylococcus aureus infected in Kunming mouse skin infection model assessed as appearance of small number of infiltrated inflammatory cells in skin dermis at 8 mg/kg,sc measured after 24 hrs; format: functional, organism-based
[25] = Toxicity in Kunming mouse assessed as effect on liver at 10 mg/kg, sc measured after 24 hrs by H and E staining based analysis; format: organism-based; details: in vivo
[26] = Toxicity in Kunming mouse assessed as effect on heart at 4 to 8 mg/kg, sc measured after 24 hrs by H and E staining based analysis; format: organism-based; details: in vivo, dose 4-8 mg/kg
[27] = Selectivity index, ratio of HC50 for hemolytic activity in sheep erythrocytes to MIC for antibacterial activity against Staphylococcus aureus ATCC 29213; format: toxicity, cell-based; details: read-out: Selectivity Index
Staphylococcus aureus [28] = test: Antibacterial activity against methicillin-resistant Staphylococcus aureus clinical isolate MRSA-13 measured after 16 to 18 hrs by CLSI method; format: functional; details: time 16-18 hrs
[29] = Toxicity in Kunming mouse assessed as animal death at 20 mg/kg, sc measured after 24 hrs; format: organism-based; details: in vivo
Escherichia coli = test: Antibacterial activity against Escherichia coli ATCC25922 measured after 16 to 18 hrs by CLSI method; format: functional; details: time 16-18 hrs
Staphylococcus aureus [30] = test: Antibacterial activity against methicillin-resistant Staphylococcus aureus clinical isolate MRSA-18 measured after 16 to 18 hrs by CLSI method; format: functional; details: time 16-18 hrs
Cell membrane [31] = test: Induction of cell membrane permeability in methicillin-resistant Staphylococcus aureus clinical isolate MRSA-16 assessed as dead cells (Q1 region) at 16 ug/ml incubated for 2 hrs by SYTO 9 and PI staining based flow cytometry analysis (reference value: 0.00%); format: cell membranes; details: dose 16.0 µg/ml
Staphylococcus aureus [32] = test: Induction of morphological changes in methicillin-resistant Staphylococcus aureus clinical isolate MRSA-16 assessed as ruptured cell surface at 16 ug/ml incubated for 4 hrs by SEM analysis; format: functional, organism-based; details: dose 16.0 µg/ml
Cell membrane [33] = test: Induction of cell membrane permeability in methicillin-resistant Staphylococcus aureus clinical isolate MRSA-16 assessed as decrease in intact cells (Q3 region) at 64 ug/ml incubated for 2 hrs by SYTO 9 and PI staining based flow cytometry analysis (reference value: 99.07%); format: cell membranes; parameters: scale not given: the % may be the effect or the level left; details: dose 64.0 µg/ml
Staphylococcus aureus [34] = test: Antibacterial activity against methicillin-resistant Staphylococcus aureus clinical isolate MRSA-20 measured after 16 to 18 hrs by CLSI method; format: functional; details: time 16-18 hrs
Staphylococcus aureus [35] = test: Antibacterial activity against methicillin-resistant Staphylococcus aureus clinical isolate MRSA-21 measured after 16 to 18 hrs by CLSI method; format: functional; details: time 16-18 hrs
[36] = Toxicity in Kunming mouse assessed as histopathological abnormalities in liver at 4 to 8 mg/kg, sc measured after 24 hrs by H and E staining based analysis; format: organism-based; details: in vivo, dose 4-8 mg/kg

Q: For `CCCC[N+](C)(CCCC)CCCCCOc1ccc(C2CC(=O)c3c(OC)cc(OCCCCC[N+](C)(CCCC)CCCC)c(CC=C(C)C)c3O2)cc1.[I-].[I-]` (configuration not stated), which Activity (Staphylococcus aureus [1]) is on record?
A: Its Activity is “Dose-Dependent Effect”.

Q: What about the Activity [2] of the same compound?
A: The Activity was “Non-Toxic”.

Q: What about the MIC (Staphylococcus aureus [3]) of the same compound?
A: The MIC was 0.25 µg/mL.

Q: And the Activity [4]?
A: Its Activity is “Non-Toxic”.

Q: And the Activity (Staphylococcus aureus [5])?
A: Its Activity is “Active”.

Q: And the Activity (Cell membrane [6])?
A: The Activity was “Dose-Dependent Effect”.

Q: What about the viability at 32 ug/ml [7] of the same compound?
A: Its viability at 32 ug/ml is 72%.

Q: What about the Activity (Cell membrane [8]) of the same compound?
A: Its Activity is 0.44%.

Q: What about the Activity (Cell membrane [9]) of the same compound?
A: The Activity was “Active”.

Q: And the fold change (FC) (Cell membrane [10])?
A: Its fold change (FC) is 7.

Q: And the Activity (Staphylococcus aureus [11])?
A: The Activity was “Active”.

Q: And the viability [12]?
A: The viability was 100%.

Q: And the HC50 at 1 h [13]?
A: Its HC50 at 1 h is over 1280 µg/mL.

Q: What about the Activity (Staphylococcus aureus [14]) of the same compound?
A: Its Activity is “Active”.

Q: And the Activity (Cell membrane [15])?
A: Its Activity is 0.02%.

Q: And the MIC (Staphylococcus aureus [16])?
A: The MIC was 32 µg/mL.

Q: And the Activity (Cell membrane [17])?
A: The Activity was 38.6%.

Q: And the MIC (Staphylococcus aureus [18])?
A: Its MIC is 0.25 µg/mL.

Q: And the Activity (Staphylococcus aureus [19])?
A: The Activity was “Dose-Dependent Effect”.

Q: And the Activity (Staphylococcus aureus [20])?
A: The Activity was “Active”.

Q: What about the Activity (Staphylococcus aureus [21]) of the same compound?
A: Its Activity is 99.86%.

Q: And the Activity (Cell membrane [22])?
A: The Activity was 57.4%.

Q: What about the survival at 24 h [23] of the same compound?
A: Its survival at 24 h is 80%.

Q: And the Activity (Staphylococcus aureus [24])?
A: Its Activity is “Active”.

Q: And the Activity [25]?
A: Its Activity is “Non-Toxic”.

Q: And the Activity [26]?
A: Its Activity is “Non-Toxic”.

Q: And the selectivity ratio [27]?
A: Its selectivity ratio is over 1280.

Q: And the MIC (Staphylococcus aureus [28])?
A: The MIC was 0.25 µg/mL.

Q: And the Activity [29]?
A: The Activity was “Toxic”.

Q: And the MIC (Escherichia coli)?
A: Its MIC is 16 µg/mL.

Q: And the MIC (Staphylococcus aureus [30])?
A: The MIC was 0.5 µg/mL.

Q: And the Activity (Cell membrane [31])?
A: Its Activity is 28.4%.

Q: And the Activity (Staphylococcus aureus [32])?
A: Its Activity is “Active”.

Q: What about the Activity (Cell membrane [33]) of the same compound?
A: Its Activity is 0%.

Q: And the MIC (Staphylococcus aureus [34])?
A: Its MIC is 0.5 µg/mL.

Q: What about the MIC (Staphylococcus aureus [35]) of the same compound?
A: Its MIC is 0.25 µg/mL.

Q: What about the Activity [36] of the same compound?
A: The Activity was “Non-Toxic”.
